Measurements reported in the NIST ThermoML archive (doi:10.1016/j.fluid.2011.11.022).

Test: wn = mass fraction of the nth substance listed
Settings: Liquid, w2 = 0.5; for mass density: Buoyancy - hydrostatic balance; for viscosity: Falling or rolling sphere viscometry

OCCOCCOCCO [triethylene glycol] + OCCOCCO
Settings | mass density [kg/m3] | viscosity [mPa·s]
298.15 K, 98 kPa | 1116.28 | 32.4
298.15 K, 49030 kPa | 1140.16 | 48.05
298.15 K, 98060 kPa | 1157.54 | 68.97
298.15 K, 196130 kPa | 1186.23 | 134.9
322.18 K, 196130 kPa | 1172.01 | 39.19
322.32 K, 98060 kPa | 1143.4 | 22.33
322.38 K, 49030 kPa | 1125.8 | 16.39
322.43 K, 98 kPa | 1104.5 | 11.71
355.15 K, 98 kPa | 1083.98 | 4.468
355.59 K, 49030 kPa | 1103.74 | 5.935
355.77 K, 98060 kPa | 1122.4 | 7.663
355.95 K, 196130 kPa | 1151.5 | 12.1
391.02 K, 98 kPa | 1055.33 | 2.179
391.29 K, 49030 kPa | 1076.96 | 2.772
391.39 K, 98060 kPa | 1098.19 | 3.484
391.57 K, 196130 kPa | 1129.2 | 5.188
432.13 K, 98 kPa | 1014.59 | 1.172
432.65 K, 98060 kPa | 1067.76 | 1.884
432.68 K, 196130 kPa | 1102.63 | 2.658
432.76 K, 49030 kPa | 1041.87 | 1.51
472.77 K, 196130 kPa | 1075.84 | 1.747
472.82 K, 98060 kPa | 1035.69 | 1.236
473.06 K, 49030 kPa | 1003.66 | 1.008
473.1 K, 98 kPa | 965.58 | 0.716

OCCOCCO [diethylene glycol] + OCCO
Settings | mass density [kg/m3] | viscosity [mPa·s]
298.15 K, 98 kPa | 1112.21 | 21.12
298.15 K, 49030 kPa | 1135.06 | 28.23
298.15 K, 98060 kPa | 1151.37 | 36.95
298.15 K, 196130 kPa | 1178.94 | 60.47
322.33 K, 49030 kPa | 1121.67 | 10.74
322.34 K, 98 kPa | 1097.38 | 8.316
332.21 K, 196130 kPa | 1162.18 | 20.76
332.33 K, 98060 kPa | 1132.91 | 13.57
353.8 K, 196130 kPa | 1150.15 | 7.683
353.83 K, 98 kPa | 1075.19 | 3.488
353.87 K, 49030 kPa | 1101.62 | 4.407
354.1 K, 98060 kPa | 1119.74 | 5.334
392.87 K, 98 kPa | 1043.14 | 1.641
393.06 K, 49030 kPa | 1072.66 | 1.986
393.3 K, 98060 kPa | 1093.17 | 2.36
393.6 K, 196130 kPa | 1126.12 | 3.232
435.93 K, 49030 kPa | 1035.82 | 1.09
435.98 K, 98060 kPa | 1060.12 | 1.293
436.08 K, 98 kPa | 1001.82 | 0.885
436.13 K, 196130 kPa | 1097.25 | 1.731
462.52 K, 98060 kPa | 1037.39 | 0.989
462.54 K, 196130 kPa | 1077.67 | 1.313
462.73 K, 49030 kPa | 1011.05 | 0.791
462.75 K, 98 kPa | 973.24 | 0.671

OCCOCCOCCO [triethylene glycol] + OCCO
Settings | mass density [kg/m3] | viscosity [mPa·s]
298.13 K, 98 kPa | 1115.1 | 26.24
298.15 K, 49030 kPa | 1136.47 | 35.89
298.15 K, 98060 kPa | 1152.73 | 48.05
298.15 K, 196130 kPa | 1180.8 | 82.26
322 K, 196130 kPa | 1169.4 | 27.05
322.25 K, 98060 kPa | 1139.05 | 17.16
322.32 K, 49030 kPa | 1121.83 | 13.34
322.36 K, 98 kPa | 1101.75 | 10.13
355.34 K, 98 kPa | 1079 | 3.999
355.56 K, 49030 kPa | 1099.04 | 5.082
355.67 K, 98060 kPa | 1118.11 | 6.302
355.76 K, 196130 kPa | 1151.43 | 9.251
392.2 K, 98 kPa | 1047.37 | 1.946
392.33 K, 49030 kPa | 1070.25 | 2.418
392.39 K, 98060 kPa | 1092.45 | 2.907
392.77 K, 196130 kPa | 1129.25 | 4.045
434.54 K, 98060 kPa | 1059.58 | 1.581
434.56 K, 49030 kPa | 1032.55 | 1.33
434.59 K, 98 kPa | 1002.88 | 1.058
434.7 K, 196130 kPa | 1101.01 | 2.158
462.27 K, 196130 kPa | 1080.63 | 1.616
462.4 K, 49030 kPa | 1004.97 | 0.996
462.47 K, 98060 kPa | 1035.79 | 1.196
462.61 K, 98 kPa | 968.72 | 0.705
